Measured values from patent US20030003491A1, “Method for detecting or quantifying environmental hormones” (priority 2000, published 2003).

Test system: LH receptor (LH-R) mRNA expression in rat granulosa cells
Assay: Microassay for dioxins using FSH-induced LH-R mRNA expression in rat granulosa cells (Northern blotting, densitometry)
Type: cell-based
Conditions: for amount of LH-R mRNA expressed relative to that without TCDD addition: normalised to GAPDH mRNA, N=3
Method: Rat granulosa cells were obtained from a juvenile female Wistar rat (purchased from Charles River Laboratories, Inc.) which had been injected with 2 mg of diethylstilbestrol (produced by Sigma Chemical Co.) dissolved in 0.1 ml of sesame oil once per day for 4 days. Specifically, the ovary of the juvenile female Wistar rat was removed and a hole was made in its follicle with a 25-gauge needle to take out granulosa cells. During this series of operations, the rat was treated according to the NIH guidelines (Biosafety in microbiological and biomedical laboratories). Then, the obtained granulosa cells were washed and centrifuged to collect them. The viability of the cells was determined by the known trypan blue exclusion method.
The obtained granulosa cells (viability: over 90%) were cultured in Ham's F-12/DME (1:1 vol/vol) (produced by Gibco Laboratories) containing 1.1 g/l NaHCO3, 40 mg/l gentamicin sulfate (produced by Sigma Chemical Co.), 1 mg/l Fungizone (produced by Gibco Laboratories) and 100 mg/l bovine serum albumin (BSA) on a collagen-coated plate in a moist atmosphere (5% CO2, 95% air) at 37° C. [Nakamura, M., et al., Endocrinology, 133, 538-544 (1993)]. The granulosa cells obtained by the culturing were used in Examples.
The rat granulosa cells obtained in Reference Example 1 (5×10^6 living cells) were cultured in 5 ml of a serum-free medium [Ham's F-12/DME (1:1 vol/vol)] on a plate of 60 mm diameter for 24 hours, and the resulting culture was allowed to stand separately in the presence of 30 ng/ml rat FSH (I-8) [obtained from National Hormone and Pituitary Distribution Program (Bethesda Md.)] and in the presence of FSH (30 ng/ml) and 2,3,7,8-tetrachlorodibenzop-dioxin (TCDD) [Sigma Chemical Co.] (1, 10 and 100 pmol/l). TCDD was used after being dissolved in dimethyl sulfoxide.
After culturing was stopped 24, 48 and 72 hours later, RNAs formed in the cells were extracted to obtain pellets of the RNA mixture according to the AGTC method [trade name: Isogen, produced by Nippon Gene Co., Ltd., Chomezynski, P. and Sacchi, N., Anal. Biochem., 162, 156-159 (1987)]. To inhibit RNase, 15 μg of the obtained pellets was dissolved in diethyl-pyrocarbonate-treated water. The resulting solution was subjected to denatured agarose gel electrophoresis and the RNAs were transferred to a nylon membrane (trade name: Biodyne, produced by ICN) to carry out Northern blotting analysis. A film (trade name: Kodak X-Omat, produced by Eastman Kodak Co.) was exposed to the nylon membrane according to the standard manual of a nucleic acid detection kit (produced by Boehringer Mannheim) for fluorescence detection using 2202 UnitroScan Laser Densitometer (produced by LKB Co., Ltd.) to determine the mRNAs.
Rat LH-R mRNA was prepared according to the description in Mol. Cell. Endocrinol., 82, 259-263 (1991). The obtained rat […] into the EcoRI site of Bluescript ks (+) vector, followed by subcloning and linearization with BglII [Nakamura, K., Nakamura, M., Igarashi, S., Miyamoto, K., Eto, Y., Ibuki, Y., and Minegishi, T., Endocrinology, 134, 2329-2335 (1994)]. Then, digoxigenin-labeled LH-R cRNA corresponding to nucleotide numbers 440 to 2560 of the rat LH-R mRNA was prepared by in vitro transcription using T3 RNA polymerase and an RNA-labeling kit.
Each of the rat LH-R mRNAs (5.4 kb) obtained in the above (1) was determined according to the luminescence intensity method. The luminescence intensity was measured with LKB 2202 UnitroScan Laser Densitometer (produced by LKB Co., Ltd.) using the probe prepared in the above (2).
The amount of each rat LH-R mRNA expressed was determined using the amount of GAPDH (glyceraldehyde 3-phosphate dehydrogenase) mRNA expressed as a reference value to obtain the relative value (%) based on the control [addition of only FSH (30 ng/ml)]. The data were expressed in terms of […] of the values obtained by carrying out culturing three times under the same conditions. […]

Clc1cc2c(cc1Cl)Oc1cc(Cl)c(Cl)cc1O2 [TCDD, 2,3,7,8-tetrachlorodibenzop-dioxin]
expression of LH-R mRNA (Northern blotting) (1 pmol/l TCDD plus FSH 30 ng/ml, 48 hours): a little decrease | expression of LH-R mRNA (Northern blotting) (10 pmol/l TCDD plus FSH 30 ng/ml, 48 hours): clearly inhibited | amount of expressed LH-R mRNA versus FSH alone (Northern blotting) (10 pmol/l TCDD plus FSH 30 ng/ml, after 24 hours of standing): difference in the amount of expressed LH-R mRNA already appeared | amount of LH-R mRNA expressed relative to that without TCDD addition (10 pmol/l TCDD plus FSH 30 ng/ml, after 24 hours): less than 50% | amount of LH-R mRNA expressed relative to that without TCDD addition (10 pmol/l TCDD plus FSH 30 ng/ml, after 48 hours): less than 50% | amount of LH-R mRNA expressed relative to that without TCDD addition (10 pmol/l TCDD plus FSH 30 ng/ml, after 72 hours): less than 50% | concentration dependency of LH-R mRNA expression (densitometer) (1, 10, 100 pmol/l TCDD plus FSH 30 ng/ml, 48 hours): decreased in a manner dependent upon the amount of TCDD added
